Patent publication US5550110A, “Endothelin Antagonists II” (Warner-Lambert Company, priority 1994, dated 1996)
Peptide text beside a SMILES is read from it.

Legend:
[1] = target: T1, ETB (porcine pulmonary arteries) (Sus scrofa, UniProt P35463); details: isolated, endothelium-intact porcine pulmonary arteries; cited from earlier work
T1 construct: host or cells: isolated, endothelium-intact porcine pulmonary arteries
T1 sequence (P35463 27-443): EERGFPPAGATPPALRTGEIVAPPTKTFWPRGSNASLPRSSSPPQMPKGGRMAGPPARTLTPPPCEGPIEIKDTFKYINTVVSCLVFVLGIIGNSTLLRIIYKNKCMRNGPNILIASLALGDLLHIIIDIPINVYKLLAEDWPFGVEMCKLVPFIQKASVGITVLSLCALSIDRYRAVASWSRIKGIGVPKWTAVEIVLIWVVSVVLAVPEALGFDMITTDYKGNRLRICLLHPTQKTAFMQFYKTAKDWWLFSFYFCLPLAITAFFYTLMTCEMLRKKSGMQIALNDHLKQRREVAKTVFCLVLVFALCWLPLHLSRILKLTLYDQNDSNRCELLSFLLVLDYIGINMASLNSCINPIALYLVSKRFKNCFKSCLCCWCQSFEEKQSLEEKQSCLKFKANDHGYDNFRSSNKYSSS

[2] = target: ETB (rabbit pulmonary artery) (Oryctolagus cuniculus, UniProt Q9N0W7)
Text: (§1) In Vitro Antagonism of ET-1 Stimulated Vasoconstriction in the Rabbit Femoral Artery (ETA) and Sarafotoxin 6c Stimulated Vasoconstriction in the Rabbit Pulmonary Artery (ETB)
(§2) Male New Zealand rabbits were killed by cervical dislocation and exsanguination. Femoral and pulmonary arteries were isolated, cleaned of connective tissue, and cut into 4-mm rings. The endothelium was denuded by placing the rings over hypodermic tubing (32 guage for femoral rings and 28 guage for pulmonary rings, Small Parts, Inc, Miami, Fla.) and gently rolling them. Denuded rings were mounted in 20 mL organ baths containing Krebs-bicarbonate buffer (composition in mM: NaCl, 118.2; NaHCO3, 24.8; KCl, 4.6; MgSO4 7.H2 O, 1.2; KH2 PO4, 1.2; CaCl2.2H2 O; Ca--Na2 EDTA, 0.026; dextrose, 10.0), that was maintained at 37° C. and gassed continuously with 5% CO2 in oxygen (pH 7.4). Resting tension was adjusted to 3.0 g for femoral and 4.0 g pulmonary arteries; the rings were left for 90 minutes to equilibrate.

[3] = test system: ETA (rabbit femoral artery); details: ET-1 as agonist, endothelium-denuded rings
Text: as §1, §2

[4] = target: T2, endothelin receptor (ETB), rat cerebellar membranes (Rattus norvegicus, UniProt P21451); experiment: Endothelin Receptor Binding Assay-B (ERBA-B), [125I]-ET-1 binding in rat cerebellar membranes; details: [125I]-ET-1 25 pM, read-out: ERRA-B IC50
T2 construct: thaw one aliquot of frozen rat cerebellar membranes (2 mg protein in 0.5 mL); from tissue; host or cells: rat cerebellum (membranes)
T2 sequence (P21451 27-442): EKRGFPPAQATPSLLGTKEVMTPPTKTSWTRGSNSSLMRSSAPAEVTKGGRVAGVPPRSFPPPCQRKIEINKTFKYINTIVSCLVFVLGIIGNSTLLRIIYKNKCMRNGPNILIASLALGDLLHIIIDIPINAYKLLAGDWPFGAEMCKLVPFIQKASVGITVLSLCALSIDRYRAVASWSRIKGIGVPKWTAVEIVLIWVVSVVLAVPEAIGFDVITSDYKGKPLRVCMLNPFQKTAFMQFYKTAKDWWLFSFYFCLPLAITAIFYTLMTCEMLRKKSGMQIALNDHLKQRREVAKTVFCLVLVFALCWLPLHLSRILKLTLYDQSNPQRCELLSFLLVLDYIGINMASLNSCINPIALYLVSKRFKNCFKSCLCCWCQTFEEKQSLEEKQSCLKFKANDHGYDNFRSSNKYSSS
Protocol: Endothelin Receptor Binding Assay-B (ERBA-B) [^125 I]-ET-1 Binding in Rat Cerebellar Membranes
The tissue is made up of 20 mM tris(hydroxymethyl)aminomethane hydrochloride (Trizma) buffer, 2 mM ethylenediaminetetra acetate, 100 μM phenylmethylsulfonyl fluoride.
First, thaw one aliquot of frozen rat cerebellar membranes (2 mg protein in 0.5 mL). Next, add 0.5 mL membrane aliquot to 4.5 mL cold tissue buffer, polytron at 7,500 revolutions per minute for 10 seconds. Finally, dilute tissue suspension 1/100 (0.1 mL suspension+9.9 mL tissue buffer), polytron again, and place ice.
Medium 199 with Hank's salts plus 25 mM Hepes+1 mg/mL bovine serum albumin.
Amersham [^125 I]-ET-1 (aliquots of 2×10^6 cpm per […] aliquot of [^125 I]-ET-1 with 5.2 mL dilution buffer, place on ice until use (final concentration will be 20,000 cpm per tube, or 25 pM).
Add 50 μL each of cold [^125 ]-ET-1 and competing ligand to tubes on ice. Mix in 150 μL of tissue to each tube, vortex briefly, then tap to force all liquids to bottom (total assay volume=250 μL). Then place the tubes in a 37° C. water bath for 2 hours.
Add 2.5 mL cold wash buffer (50 mM Trizma buffer) to each tube, filter, and then wash tube with additional 2.5 mL wash buffer and add to filter. Finally, wash filters with an additional 2.5 mL of cold wash buffer.
Count filters for radioactivity in gamma counter.

[5] = target: T3, rat recombinant ETB receptor (CHO cells) (Rattus norvegicus, UniProt P21451); experiment: Inhibition of ET-1 stimulated arachidonic acid release (AAR-B); type: cell-based; details: ET-1 0.3 nM
T3 construct: expressed in transfected cells; host or cells: CHO cells
T3 sequence (P21451 27-442): T2 sequence (P21451 27-442)
Protocol: (§3) In Vitro Inhibition of ET-1 Stimulated Arachidonic Acid Release in Cultured Rabbit Vascular Smooth Muscle Cells (AAR-A) or CHO Cells Expressing Rat Recombinant ETB Receptor (AAR-B) by Compounds of Formula I
(§4) Antagonist activity is measured by the ability of added compounds to reduce endothelin-stimulated arachidonic acid release in cultured vascular smooth muscle cells as arachidonic acid release (AAR). [^3 H] Arachidonic Acid Loading Media (LM) is DME/F12+0.5% fetal calf serum (FCS)×0.25 mCi/mL [^3 H] arachidonic acid (Amersham). Confluent monolayers of cultured rabbit renal artery vascular smooth muscle cells (AAR-A) or CHO cells expressing rat recombinant ETB receptor (AAR-B) were incubated in 0.5 mL of the LM over 18 hours, at 37° C., in 5% CO2. The LM was aspirated and the cells were washed once with the assay buffer (Hank's balanced salt solution [BSS]+10 mM HEPES+fatty acid-free BSA (1 mg/mL)), and incubated for 5 minutes with 1 mL of the prewarmed assay buffer. This solution was aspirated, followed by an additional 1 mL of prewarmed assay buffer, and further incubated for another 5 minutes. A final 5-minute incubation was carried out in a similar manner. The same procedure was repeated with the inclusion of 10 μL of the test compound (1 nM to 1 μM) and 10 μL ET-1 (0.3 nM) and the incubation was extended for 30 minutes. This solution was then collected, […] of scintillation cocktail was added, and the amount of [^3 H] arachidonic acid was determined in a liquid scintillation counter.

[6] = test system: endothelin receptor (ETA), rabbit renal artery vascular smooth muscle cells; experiment: Endothelin Receptor Binding Assay-A (ERBA-A), intact cell binding of [125I]-ET-1; details: [125I]-ET-1 25 pM
Protocol: The compounds of Formula I are valuable antagonists of endothelin. […] Thus, the compounds of Formula I were tested for their ability to inhibit [^125 I]-ET-1([^125 I]-Endothelin-1) binding in a receptor assay according to the following procedures: Endothelin Receptor Binding Assay-A (ERBA-A) Intact Cell Binding of [^125 I]-ET-1 The cells used were rabbit renal artery vascular smooth muscle cells grown in a 48-well dish (1 cm^2) (confluent cells). The assay buffer was a medium 199 containing Hanks salts and 25 mM Hepes buffer (Gibco 380-2350AJ), supplemented with penicillin/streptomycin/fungizone (0.5%) and bovine serum albumin (1 mg/mL). Amersham radioiodinated endothelin-1 [^125 I]-ET-1 was used at final concentration of 20,000 cpm/0.25 mL (25 pM). […] Second, remove the assay buffers, place the dish on ice, and add 150 μL of cold assay buffer described above to each well. Third, add […] each of cold [^125 I]-ET-1 and competing ligand to the solution (at the same time if possible). Next, place dish in a 37° C. water bath for about 2 hours and gently agitate the dish every 15 minutes. Discard the radioactive incubation mixture in the sink and wash wells 3 times with 1 mL of cold phosphate buffered saline. Last, add […] of 0.25 molar sodium hydroxide, agitate for 1 hour on a rotator, and then transfer the sodium hydroxide extract to gamma counting tubes and count the radioactivity.

[7] = test system: endothelin receptor, cultured rabbit renal artery vascular smooth muscle cells; experiment: Inhibition of ET-1 stimulated arachidonic acid release (AAR-A); type: cell-based; details: ET-1 0.3 nM
Protocol: as §3, §4

[8] = test system: CaCO-2 cells (human colon adenocarcinoma cell line); type: in vitro ADME
Protocol: For experiments, the cells were counted, then diluted to 2.5×10^5 cells/mL for planting (400 μL per well) onto Snapwell culture membranes with 2.5 mL media in the lower chamber. Media in the […] was changed every 2 to 3 days. Cells used for this series of experiments were between passage 38 and 91. 2-[N-Morpholino]ethanesulfonic acid (MES)+25 mM glucose was used as incubation buffer for all the experiments and all incubation solutions were prepared to an osmotic pressure of 280 to 300 milliosmoles. The concentration of the endothelin antagonist being studied (for all experiments) was 100 μM and another endothelin antagonist with similar HPLC characteristics (retention time 2-3 minutes from the ET antagonist being studied, and similar chemical characteristics) was used at a concentration of 25 μM as an internal standard to compensate for any injection error. Prior to the start of the experiment, the transepithelial electrical resistance (TEER) was measured for each Snapwell (in media) at three points of the membrane. […] The membranes were washed by swirling in 0.9% normal saline and mounted in the pretreated diffusion chambers [0.1 mg/mL human serum albumin for 1 to 2 hours at 37° C. with O2 bubbling followed by air drying at 37° C. overnight, then with 4.5 to 5.0 mL dosing solution (MES+glucose+^14 C-PEG-4000 (5000 dpm/50 μL)+drug) for 5 minutes and 4.5 to 5.0 mL MES+glucose rinse just before the experiment.] The apical (donor) side was filled with 4.5 to 5.0 mL dosing solution, the basolateral (receiver) side with MES+glucose. Samples were removed from the donor and receiver compartments over the course of the experiment and analyzed for ^14 C-PEG 4000 (cell membrane integrity) and endothelin content.

Chain of ETB (rabbit pulmonary artery) (Q9N0W7 27-441): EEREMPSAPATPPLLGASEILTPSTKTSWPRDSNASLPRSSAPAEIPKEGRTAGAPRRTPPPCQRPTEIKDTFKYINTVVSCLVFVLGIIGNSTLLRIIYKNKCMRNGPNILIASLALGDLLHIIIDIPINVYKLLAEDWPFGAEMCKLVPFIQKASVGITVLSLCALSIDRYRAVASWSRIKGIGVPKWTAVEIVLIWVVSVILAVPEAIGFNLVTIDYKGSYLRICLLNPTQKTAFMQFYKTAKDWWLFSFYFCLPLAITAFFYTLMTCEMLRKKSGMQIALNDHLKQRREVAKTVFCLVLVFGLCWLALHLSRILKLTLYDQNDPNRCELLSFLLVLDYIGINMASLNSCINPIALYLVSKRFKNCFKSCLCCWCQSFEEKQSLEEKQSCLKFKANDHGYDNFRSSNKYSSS

| Compound | effect on vascular tone [1] | Kb [2] | pA2 Femoral [3] | IC50 [4] | IC50 [5] | IC50 [6] | IC50 [7] | absorption in the gut suggested by CaCO-2 values [8] |
| --- | --- | --- | --- | --- | --- | --- | --- | --- |
| ET[6-21, 1,3,11,15-Ala] | caused vasorelaxation |  |  |  |  |  |  |  |
| CC[C@H](C)[C@H](NC(=O)[C@H](CC(=O)O)NC(=O)[C@H](CCC(=O)O)NC(=O)[C@H](NC(C)=O)C1c2ccccc2CCc2ccccc21)C(=O)N[C@H](C(=O)N[C@@H](Cc1c[nH]c2ccccc12)C(=O)O)[C@@H](C)CC [Example 8, Ac-D-Bhg-Glu-Asp-Ile-Ile-Trp] (HELM PEPTIDE1{[ac].[O=C([C@H](N[*:1])C1c2ccccc2CCc2ccccc21)[*:2]].E.D.I.I.W}$$$$V2.0) |  | 0.1 µM | 6.5 | 0.022 µM | 0.027 µM | 0.0055 µM | 0.007 µM |  |
| ET[8-21,11,15-Ala] | caused vasorelaxation |  |  |  |  |  |  |  |
| CC[C@H](C)[C@H](NC(=O)[C@@H](NC(=O)[C@@H](CC(=O)O)NC(=O)[C@H](CC(C)C)NC(=O)[C@H](NC(C)=O)C1c2ccccc2CCc2ccccc21)[C@@H](C)CC)C(=O)N[C@@H](Cc1c[nH]c2ccccc12)C(=O)O [Example 16, Ac-D-Bhg-Leu-D-Asp-Ile-Ile-Trp] (HELM PEPTIDE1{[ac].[O=C([C@H](N[*:1])C1c2ccccc2CCc2ccccc21)[*:2]].L.[dD].I.I.W}$$$$V2.0) |  |  |  | 0.4 µM |  | 0.14 µM |  | 5-10% |
| ET[1,3,11,15-Ala]: linear ET analog, reported selective ETB agonist (ASASSLMDKEAVYFAHLDIIW; Endothelin-1; UniProt P05305 53-73, looked up, variant C1A C3A C11A C15A) | caused vasorelaxation |  |  |  |  |  |  |  |
| CC[C@H](C)[C@H](NC(=O)[C@H](CC(=O)O)NC(=O)[C@H](CC(C)C)NC(=O)[C@H](NC(C)=O)C1c2ccccc2C=Cc2ccccc21)C(=O)N[C@H](C(=O)N[C@@H](Cc1c[nH]c2ccccc12)C(=O)O)[C@@H](C)CC [Example 6, Ac-D-Bheg-Leu-Asp-Ile-Ile-Trp] (HELM PEPTIDE1{[ac].[O=C([C@H](N[*:1])C1c2ccccc2C=Cc2ccccc21)[*:2]].L.D.I.I.W}$$$$V2.0) |  | 0.0398 µM | 6.8 | 0.019 µM | 0.017 µM | 0.005 µM | 0.003 µM |  |
| CC[C@H](C)[C@H](NC(=O)[C@H](CC(=O)O)NC(=O)[C@H](CCCN)NC(=O)[C@H](NC(C)=O)C1c2ccccc2CCc2ccccc21)C(=O)N[C@H](C(=O)N[C@@H](Cc1c[nH]c2ccccc12)C(=O)O)[C@@H](C)CC [Example 7, Ac-D-Bhg-Orn-Asp-Ile-Ile-Trp] (HELM PEPTIDE1{[ac].[O=C([C@H](N[*:1])C1c2ccccc2CCc2ccccc21)[*:2]].[Orn].D.I.I.W}$$$$V2.0) |  |  | 6.5 | 1.5 µM |  | 0.022 µM | 0.037 µM |  |
| N-Acetyl-ET[10-21,11,15-Ala] | caused vasorelaxation |  |  |  |  |  |  |  |
| CC[C@H](C)[C@H](NC(=O)[C@H](CC(=O)O)NC(=O)[C@H](CC(C)C)NC(=O)[C@H](N)C1c2ccccc2CCc2ccccc21)C(=O)N[C@H](C(=O)N[C@@H](Cc1c[nH]c2ccccc12)C(=O)O)[C@@H](C)CC [Example 2, D-Bhg-Leu-Asp-Ile-Ile-Trp] (HELM PEPTIDE1{[N[C@@H](C(=O)[*:2])C1c2ccccc2CCc2ccccc21].L.D.I.I.W}$$$$V2.0) |  |  | 5.7 | 2.1 µM | 9.6 µM | 0.45 µM | 0.1 µM |  |
